Where a name gives a salt, the structure may show the parent alone. Read-outs that look alike come from different tables or passages of the source.
Experiments:
NK1 receptor [1] = biological target: T1, NK1 receptor (Cavia porcellus, UniProt P30547); test: NK1 antagonist activity in an in vitro NK1 preparation (guinea pig ileum), antagonism of substance-P methylester; type: cell-based; settings: vs substance-P methylester
T1 construct: Guinea Pig Ileum; from tissue; host or cells: guinea pig ileum
Text: Therefore, it is expected to be useful in the therapeutic disorders when the attenuation of the NK1 receptor response is the appropriate form of intervention.

tachykinin NK1 receptor = biological target: T2, tachykinin NK1 receptor (Homo sapiens, UniProt P25103); test: NK1 binding in human IM9 lymphoma cells, displacement of [125I]Bolton Hunter Substance-P
T2 construct: tachykinin NK1 receptor sites in human IM9 lymphoma cells; endogenous in cells; host or cells: human IM9 lymphoma cells

NK1 receptor [2] = biological target: T1, NK1 receptor; test: Inhibition of SPOMe-induced plasma protein extravasation in the guinea pig bladder; type: in vivo
Text: They antagonize the ability of a NK1 receptor selective agonist (SPOMe) to induce plasma protein extravasation in the guinea pig bladder. The protocol is similar to that described by Eglezos, et al., Eur. J. Pharmacol., 209: 277-279 (1991).

T2 sequence (P25103 whole entry): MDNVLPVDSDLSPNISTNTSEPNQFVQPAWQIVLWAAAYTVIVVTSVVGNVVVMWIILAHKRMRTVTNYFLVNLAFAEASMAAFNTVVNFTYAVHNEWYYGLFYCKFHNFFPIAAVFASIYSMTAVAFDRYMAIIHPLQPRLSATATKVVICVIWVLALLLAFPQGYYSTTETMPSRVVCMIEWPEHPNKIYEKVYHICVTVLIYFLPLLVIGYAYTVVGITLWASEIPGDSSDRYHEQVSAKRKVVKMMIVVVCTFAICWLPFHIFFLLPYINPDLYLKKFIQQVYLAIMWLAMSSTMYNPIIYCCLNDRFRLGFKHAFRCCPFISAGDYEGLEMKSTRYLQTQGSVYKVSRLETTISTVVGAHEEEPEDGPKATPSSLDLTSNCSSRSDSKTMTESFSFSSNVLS
T1 sequence (P30547 whole entry): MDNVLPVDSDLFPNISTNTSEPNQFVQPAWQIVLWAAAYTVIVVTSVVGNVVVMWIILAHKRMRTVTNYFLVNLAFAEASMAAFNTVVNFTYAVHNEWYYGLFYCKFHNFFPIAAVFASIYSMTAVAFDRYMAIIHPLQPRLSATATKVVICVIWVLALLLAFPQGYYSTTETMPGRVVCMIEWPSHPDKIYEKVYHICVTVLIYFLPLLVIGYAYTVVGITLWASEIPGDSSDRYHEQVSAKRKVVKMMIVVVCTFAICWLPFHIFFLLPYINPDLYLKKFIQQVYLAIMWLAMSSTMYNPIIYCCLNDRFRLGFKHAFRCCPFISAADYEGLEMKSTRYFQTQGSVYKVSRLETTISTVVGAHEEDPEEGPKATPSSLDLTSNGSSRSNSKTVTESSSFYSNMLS

Row | Kb (NK1 receptor [1]) | IC50 (tachykinin NK1 receptor) | ED50 (NK1 receptor [2]; IV, read-out: ID50 (IV)) | ED50 (NK1 receptor [2]; PO, read-out: ID50 (PO)) | Structure (SMILES)
1 | 6.3 nM | 9 nM |  |  | C[C@](Cc1c[nH]c2ccccc12)(NC(=O)OCc1cc2ccccc2s1)C(=O)N[C@@H](CO)c1ccccc1 [Example 18, Carbamic acid, [2-[(2-hydroxy-1-phenylethyl)amino]-1-(1H-indol-3-ylmethyl)-1-methyl-2-oxoethyl]-, benzo[b]thien-2-ylmethyl ester, [R-(R*,R*)]-]
2 |  | 58 nM |  |  | C[C@](Cc1c[nH]c2ccccc12)(NC(=O)OCc1ccccc1)C(=O)N[C@@H](CO)c1ccccc1 [Example 15, Carbamic acid, [2-[(2-hydroxy-1-phenylethyl)amino]-1-(1H-indol-3-ylmethyl)-1-methyl-2-oxoethyl]-, phenylmethyl ester, [R-(R* R*)]-]
3 | 22 nM | 16 nM |  |  | CC(C)C[C@H](N)C(=O)OC[C@H](NC(=O)[C@@](C)(Cc1c[nH]c2ccccc12)NC(=O)OCc1cc2ccccc2o1)c1ccccc1 [Example 12, L-Leucine, 2-[[2-[[(2-benzofuranylmethoxy)carbonyl]amino]-3-(1H-indol-3-yl)-2-methyl-1-oxopropyl]amino]-2-phenylethyl ester, [R-(R*,R*)]-]
4 | 6.2 nM | 12 nM | 0.16 mg/kg | 4.4 mg/kg | CN(C)CC(=O)OC[C@H](NC(=O)[C@@](C)(Cc1c[nH]c2ccccc12)NC(=O)OCc1cc2ccccc2o1)c1ccccc1 [Example 9, Glycine, N,N-dimethyl-, 2-[[2-[[(2-benzofuranylmethoxy)carbonyl]amino]-3-(1H-indol-3-yl)-2-methyl-1-oxopropyl]amino]-2-phenylethyl ester, monohydrochloride, [R-(R*,R*)]-]
5 | 16 nM | 13 nM |  |  | C[C@](Cc1c[nH]c2ccccc12)(NC(=O)OCc1cc2ccccc2o1)C(=O)N[C@@H](CN)c1ccccc1 [Example 8, Carbamic acid, [2-[(2-amino-1-phenylethyl)amino]-1-(1H-indol-3-ylmethyl)-1-methyl-2-oxoethyl]-, 2-benzofuranylmethyl ester [R-(R*,R*)]-]
6 | 1.3 nM | 1.2 nM | 0.16 mg/kg | 30 mg/kg | C[C@](Cc1c[nH]c2ccccc12)(NC(=O)OCc1cc2ccccc2o1)C(=O)N[C@@H](CO)c1ccccc1 [Example 6, Carbamic acid, [2-[(2-hydroxy-1-phenylethyl)amino]-1-(1H-indol-3-ylmethyl)-1-methyl-2-oxoethyl]-, 2-benzofuranylmethyl ester, [R-(R*,R*)]-]
7 |  | 84 nM |  |  | CN(C)CC(=O)NC[C@H](NC(=O)[C@@](C)(Cc1c[nH]c2ccccc12)NC(=O)OCc1cc2ccccc2o1)c1ccccc1 [Example 10, Carbamic acid, [2-[[(2-[[(dimethylamino)acetyl]amino]-1-phenylethyl]amino]-1-(1H-indol-3-ylmethyl)-1-methyl-2-oxoethyl]-, 2-benzofuranylmethyl ester, monohydrochloride, [R-(R*,R*)]-]
8 | 9.3 nM | 3.9 nM |  |  | C[C@](Cc1c[nH]c2ccccc12)(NC(=O)OCc1cc(F)ccc1F)C(=O)N[C@@H](CO)c1ccccc1 [Example 17, Carbamic acid, [2-[(2-hydroxy-1-phenylethyl)amino]-1-(1H-indol-3-ylmethyl)-1-methyl-2-oxoethyl]-, (2,5-difluorophenyl)methyl ester, [R-(R*,R*)]]
9 | 10.6 nM | 3.3 nM |  |  | C[C@](Cc1c[nH]c2ccccc12)(NC(=O)OCc1ccccc1F)C(=O)N[C@@H](CO)c1ccccc1 [Example 16, Carbamic acid, [2-[(2-hydroxy-1-phenylethyl)amino]-1-(1H-indol-3-ylmethyl)-1-methyl-2-oxoethyl]-, (2-fluorophenyl)methyl ester, [R-(R*,R*)]-]
